Test results published in PMC2811193, “Complementary Roles in Cancer Prevention: Protease Inhibitor Makes the Cancer Preventive Peptide Lunasin Bioavailable” (PLoS ONE, 2010).

How the values were obtained:
[1] = system: DMBA-induced NIH3T3 cells; experiment: Foci formation assay in DMBA-induced NIH3T3 cells; format: cell-based
Method: The foci formation assay was performed according to Reznikoff et al. NIH3T3 cells were obtained from American Type Culture Collection (ATCC) and cultured in RPMI 1640 medium supplemented with 10% fetal bovine serum (FBS) (Invitrogen, Carlsbad, CA, USA). Cells were plated at a density of 500 cells/well in 12-well plates, incubated overnight at 37°C and treated with lunasin or BBI for 4 hrs. Then, cells were treated with 1.5 µg/ml DMBA for 20 hrs. After washing with PBS, fresh medium was added. Peptides were added and medium was changed every week for 6 weeks. At the end of experiment, cells were washed with 0.9% NaCl, fixed with methanol, stained with Giemsa, and scored for transformed foci. The negative control was a set of cells receiving no DMBA, while the positive control consisted of cells induced by DMBA but without treatment.

MDA-MB-231 tumors = experiment: In situ TUNEL assay for apoptosis in xenograft tumor sections; format: in vivo, athymic NCr-nu/nu mice; details: lunasin 20 and 4 mg/kg (P = 0.0088, 0.0141 vs control), BBI 20 mg/kg i.p.
Method: In situ terminal deoxynucleotidyl transferase-mediated dUTP nick end labeling (TUNEL) assay was performed using ApopTag Detection Kit (Millipore, USA & Canada) and ran based on the manufacturer's protocol. Briefly, deparaffinized and rehydrated sections were pretreated with 20 µg/mL proteinase K for 15 min and incubated with terminal transferase and digoxigenin dUTP at 37°C for 1 h. After washing, sections were incubated with antidigoxigenin rhodamine (Millipore) and DAPI (Invitrogen), and slides were visualized by fluorescent microscopy (Axiophot 381). The apoptotic cells were calculated as percentage of positive cells over total number of cells counted in microscope at 400× magnification.

[2] = system: MDA-MB-231 tumor xenografts; experiment: Breast cancer prevention in MDA-MB-231 xenograft mouse model; format: in vivo, athymic NCr-nu/nu mice; details: for tumor incidence (mice showing tumors) / tumor incidence lower compared with the BBI group / tumor incidence lower compared with the control: seven weeks post-cells injection
Method: Human MDA-MB-231 breast cancer cells were obtained from ATCC and grown in Leibovitz's L-15 Medium supplemented with 10% FBS, 100 unit/ml penicillin, and 100 µg/ml streptomycin (Invitrogen), in a humidified atmosphere at 37°C.
Mice protocol was approved by ACUC (University of California, Berkeley, CA, USA). Thirty-two six weeks-old athymic NCr-nu/nu mice (National Cancer Institute, Frederick, MD, USA) were acclimatized for 1 week and randomly divided into four groups (n = 8): control group (receiving PBS), BBI-group (receiving BBI at 20 mg/kg body weight), and two lunasin-groups (receiving synthetic lunasin [Chengdu KaiJie Bio-Pharmaceutical Co., Chengdu, P.R. China] at 20 mg/kg body weight and 4 mg/kg body weight). After two months of i.p. treatment three times a week, mice were injected subcutaneously in the right flank with 1×10^7 MDA-MB-231 cells suspended in 0.1 ml of Matrigel Basement Membrane Matrix (Becton Dickinson, Bedford, MA, USA). Tumor growth was monitored by palpation, and the onset when tumors were detectable was noted. Tumor size was measured with calipers, and tumor volume was calculated assuming the shape as ellipsoid. Tumor incidence in percentage was calculated as the number of tumor-bearing mice divided by the total number of mice in each group, whereas tumor generation was calculated as the total number of tumors divided by total number of mice in each group. The volume of the tumor was determined using the following formula: tumor volume = length × width^2 ×0.523 [41].
At the end of the experiment, animals were sacrificed, and tumors were dissected and weighed. Individual tumors were split for fixation in the Shando Glyo-Fixx™ (Thermo Scientific, Pittsburgh, PA, USA) for histological examination. The paraffin-embedded sections were stained with hematoxylin and eosin (H&E).

[3] = 4 mg/kg body weight i.p., n = 8

Structure (SMILES): CC[C@H](C)[C@H](NC(=O)[C@H](CCCCN)NC(=O)[C@H](CCC(=O)O)NC(=O)[C@H](CCSC)NC(=O)[C@@H](NC(=O)[C@H](Cc1c[nH]cn1)NC(=O)[C@H](CCCCN)NC(=O)[C@H](CCC(=O)O)NC(=O)[C@H](CS)NC(=O)[C@@H]1CCCN1C(=O)[C@@H](NC(=O)[C@H](CC(C)C)NC(=O)[C@H](CC(N)=O)NC(=O)[C@@H](NC(=O)CNC(=O)[C@H](CCC(N)=O)NC(=O)[C@H](CC(C)C)NC(=O)[C@H](CCC(N)=O)NC(=O)[C@H](CCCCN)NC(=O)[C@H](CCCNC(=N)N)NC(=O)[C@H](CS)NC(=O)[C@H](CO)NC(=O)[C@H](CC(=O)O)NC(=O)[C@H](CCC(N)=O)NC(=O)[C@H](CCC(N)=O)NC(=O)[C@H](Cc1c[nH]cn1)NC(=O)[C@H](CCC(N)=O)NC(=O)[C@H](Cc1c[nH]c2ccccc12)NC(=O)[C@H](CCCCN)NC(=O)[C@@H](N)CO)C(C)C)[C@@H](C)O)[C@@H](C)CC)C(=O)N[C@@H](CCC(N)=O)C(=O)NCC(=O)N[C@@H](CCCNC(=N)N)C(=O)NCC(=O)N[C@@H](CC(=O)O)C(=O)N[C@@H](CC(=O)O)C(=O)N[C@@H](CC(=O)O)C(=O)N[C@@H](CC(=O)O)C(=O)N[C@@H](CC(=O)O)C(=O)N[C@@H](CC(=O)O)C(=O)N[C@@H](CC(=O)O)C(=O)N[C@@H](CC(=O)O)C(=O)N[C@@H](CC(=O)O)C(=O)O [lunasin]
- lunasin more effective than BBI in foci formation inhibition on an equimolar basis ([1]; 100 nM each): 18%
- reduction of foci formation ([1]; 100 nM peptide, 1.5 µg/ml DMBA, 6 weeks, n = 6): 73%
- suppression of foci formation ([1]; 1 µM lunasin extracted from the liver of LES-fed rats, n = 6): as effectively as an equimolar amount of synthetic lunasin
- TUNEL-positive apoptotic cells in tumors (MDA-MB-231 tumors): significantly increased apoptosis
- tumor incidence (mice showing tumors) ([2]; 4 mg/kg body weight i.p. three times a week, n = 8): 50%
- decrease of the sizes of tumors (tumor volume) versus control mice [2, 3]: 34%
- tumor generation lower relative to BBI group [2, 3]: 69%
- tumor incidence lower compared with the BBI group ([2]; 4 mg/kg body weight i.p.): 43%
- tumor incidence lower compared with the control ([2]; 4 mg/kg body weight i.p.): 33%
- tumor generation lower relative to control ([2]; 4 mg/kg body weight i.p., total number of tumors / total number of mice, P = 0.029 vs control, n = 8): 70%
- tumor incidence (mice showing tumors) ([2]; 20 mg/kg body weight i.p. three times a week, n = 8): 38%
- decrease of the sizes of tumors (tumor volume) versus control mice ([2]; 20 mg/kg body weight i.p., n = 8): 23%
- tumor incidence lower compared with the BBI group ([2]; 20 mg/kg body weight i.p.): 57%
- tumor incidence lower compared with the control ([2]; 20 mg/kg body weight i.p.): 49%
- tumor generation ([2]; 20 mg/kg body weight i.p., versus vehicle-treated group): reduced
- weight of tumors at the end of the experiment ([2]; both doses of lunasin (20, 4 mg/kg) compared to control-group (P = 0.2134, 0.1880) and BBI-group (P = 0.0909, 0.0569)): lower
- body weight ([2]; i.p. three times a week, BBI 20 mg/kg, lunasin 20 and 4 mg/kg body weight, compared among the four groups, n = 8): No significant differences
- appearance of tumors ([2]; lunasin 20 and 4 mg/kg i.p.): delay in the appearance of tumors
